# Reference: patent publication US8207314B2, “Tumor antigens for prevention and/or treatment of cancer” (Sanofi Pasteur Limited, priority 2003, dated 2012)
# Key:
# [1] = system: peptide-loaded TAP-deficient T2 cells; test: CTL activity of AAC2-2 peptide pool-specific T-cell line; assay type: cell-based, human; details: HLA-A-0201-restricted, T-cell line stimulated by peptide group 6
# Method: Thus, it was determined that AAC2-2 peptides are immunogenic in the human immune system.
# [2] = system: autologous T-cell-enriched PBMC preparations; test: IFN-γ ELISPOT of human T cells stimulated with AAC2-2 peptide pools; assay type: cell-based; details: human T cells from HLA-A-0201 donors, after third and fourth round of stimulation with AAC2-2 peptide pools
# Method: Using the AAC2-2 amino acid sequence, a library of 9-mer peptides predicted to bind to HLA-A-0201 was constructed (Table III; “N” indicates the sequence is not found within the mouse homolog, while “Y” indicates the sequence is found within the mouse homolog). Twenty-three of the peptides were dissolved in DMSO at 10 mg/ml (Table IV) and used in human PBMC cultures to test for their ability to elicit CD8 and CD4αβ T-cell responses in vitro.
# Using GM-CSF and IL-4, dendritic cells (DC) were generated from peripheral blood monocytes of blood donors expressing HLA-A-0201.
# These DC were used to stimulate autologous T-cell-enriched PBMC preparations. The T cells were re-stimulated with autologous PBMC and then re-stimulated with CD40-ligand-activated autologous B cells. […] Peptide group 6 includes the following peptides: […] (aa 36-44), […] (aa 41-49), and […] (aa 95-103).
sequence,measurement,setting,value
ILTDVTLLV [EC5],CTL activity killing peptide-loaded T2 target cells,[1],dominant activity
same,CTL activity killing peptide-loaded T2 target cells,[1]; listed as ILTDVTLLV,dominant peptide
same,IFN-γ production (ELISPOT),[2],dominant activity
